Results from the supplement of paper PMC10307832.

Key:
Experiment in all cases: relative viability (nuclei count vs DMSO), 5 days (fraction); higher = more cells survive
Sorafenib + Dasatinib = compound: CNC(=O)c1cc(Oc2ccc(NC(=O)Nc3ccc(Cl)c(C(F)(F)F)c3)cc2)ccn1 [Sorafenib] + Cc1nc(Nc2ncc(C(=O)Nc3c(C)cccc3Cl)s2)cc(N2CCN(CCO)CC2)n1 [Dasatinib] (partner 0.075 µM)
Method in brief: (§1)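 Lung cancer cell lines in 1536-well plates were dosed by pin tool the day after seeding, either with one drug alone or with a fixed anchor-drug dose plus five library-drug doses (not always all listed) in √10 steps. After 5 days, cells were fixed and their nuclei stained in one step (final 0.05% Triton X-100, 1% formaldehyde, 1 ug/ml Hoechst), then counted on 4× images. Relative viability is the nuclei count in treated wells divided by that in vehicle wells. Values are medians of duplicate plates.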

Sorafenib + Trametinib = compound: CNC(=O)c1cc(Oc2ccc(NC(=O)Nc3ccc(Cl)c(C(F)(F)F)c3)cc2)ccn1 [Sorafenib] + CC(=O)Nc1cccc(-n2c(=O)n(C3CC3)c(=O)c3c(Nc4ccc(I)cc4F)n(C)c(=O)c(C)c32)c1 [Trametinib] (partner 0.02 µM)
Method in brief: as §1

Sorafenib + Lapatinib = compound: CNC(=O)c1cc(Oc2ccc(NC(=O)Nc3ccc(Cl)c(C(F)(F)F)c3)cc2)ccn1 [Sorafenib] + CS(=O)(=O)CCNCc1ccc(-c2ccc3ncnc(Nc4ccc(OCc5cccc(F)c5)c(Cl)c4)c3c2)o1 [Lapatinib] (partner 2 µM)
Method in brief: as §1

Sorafenib + Foretinib = compound: CNC(=O)c1cc(Oc2ccc(NC(=O)Nc3ccc(Cl)c(C(F)(F)F)c3)cc2)ccn1 [Sorafenib] + COc1cc2c(Oc3ccc(NC(=O)C4(C(=O)Nc5ccc(F)cc5)CC4)cc3F)ccnc2cc1OCCCN1CCOCC1 [Foretinib] (partner 0.25 µM)
Method in brief: as §1

Sorafenib + Vorinostat = compound: CNC(=O)c1cc(Oc2ccc(NC(=O)Nc3ccc(Cl)c(C(F)(F)F)c3)cc2)ccn1 [Sorafenib] + O=C(CCCCCCC(=O)Nc1ccccc1)NO [Vorinostat] (partner 1 µM)
Method in brief: as §1

Row | Cell Line | relative viability (Sorafenib + Dasatinib; first compound 0.08 µM) | relative viability (Sorafenib + Dasatinib; first compound 0.253 µM) | relative viability (Sorafenib + Dasatinib; first compound 2.53 µM) | relative viability (Sorafenib + Dasatinib; first compound 8 µM) | relative viability (Sorafenib + Trametinib; first compound 0.08 µM) | relative viability (Sorafenib + Trametinib; first compound 0.253 µM) | relative viability (Sorafenib + Trametinib; first compound 2.53 µM) | relative viability (Sorafenib + Trametinib; first compound 8 µM) | relative viability (Sorafenib + Lapatinib; first compound 0.08 µM) | relative viability (Sorafenib + Lapatinib; first compound 0.253 µM) | relative viability (Sorafenib + Lapatinib; first compound 2.53 µM) | relative viability (Sorafenib + Lapatinib; first compound 8 µM) | relative viability (Sorafenib + Foretinib; first compound 0.08 µM) | relative viability (Sorafenib + Foretinib; first compound 0.253 µM) | relative viability (Sorafenib + Foretinib; first compound 2.53 µM) | relative viability (Sorafenib + Foretinib; first compound 8 µM) | relative viability (Sorafenib + Vorinostat; first compound 0.08 µM) | relative viability (Sorafenib + Vorinostat; first compound 0.253 µM) | relative viability (Sorafenib + Vorinostat; first compound 2.53 µM) | relative viability (Sorafenib + Vorinostat; first compound 8 µM)
1 | NCI-H460 | 0.554 | 0.541 | 0.498 | 0.416 | 0.225 | 0.154 | 0.126 | 0.0388 | 1.02 | 0.868 | 0.915 | 0.807 | 0.972 | 0.997 | 0.972 | 0.622 | 0.748 | 0.582 | 0.611 | 0.363
2 | NCI-H520 | 0.231 | 0.225 | 0.216 | 0.174 | 0.934 | 0.403 | 0.518 | 0.217 | 0.92 | 0.71 | 0.919 | 0.402 | 0.71 | 0.71 | 0.736 | 0.406 | 0.673 | 0.597 | 0.606 | 0.27
3 | NCI-H596 | 0.68 | 0.53 | 0.55 | 0.461 | 0.844 | 0.735 | 0.807 | 0.75 | 1.07 | 1.11 | 1.52 | 0.995 | 0.73 | 0.958 | 0.866 | 0.66 | 0.748 | 0.547 | 0.929 | 0.717
4 | NCI-H647 | 0.245 | 0.172 | 0.174 | 0.135 | 0.583 | 0.388 | 0.235 | 0.144 | 1.18 | 0.868 | 1.19 | 0.426 | 1.25 | 1 | 0.987 | 0.48 | 0.473 | 0.453 | 0.257 | 0.0463
5 | NCI-H650 | 0.508 | 0.367 | 0.462 | 0.425 | 0.989 | 0.937 | 0.866 | 0.578 | 0.986 | 0.855 | 0.946 | 0.611 | 1.02 | 0.863 | 0.942 | 0.857 | 0.855 | 0.257 | 0.371 | 0.449
6 | NCI-H661 | 0.978 | 0.82 | 0.815 | 0.215 | 0.584 |  | 0.444 | 0.291 | 0.595 | 0.509 | 0.446 | 0.507 | 1.03 | 0.986 |  | 0.701 | 0.818 | 0.757 | 0.796 | 0.441
7 | NCI-H727 | 0.481 | 0.453 | 0.399 | 0.232 | 0.416 | 0.351 | 0.391 | 0.367 | 0.777 | 0.597 | 0.771 | 0.486 | 0.936 | 1.11 | 0.909 | 0.739 | 1.38 | 1.11 | 1.23 | 1.25
8 | NCI-H838 | 0.285 | 0.277 | 0.318 | 0.293 | 0.606 | 0.507 | 0.498 | 0.291 | 1.1 | 0.961 | 1.16 | 0.823 | 1.12 | 1.04 | 1.28 | 0.685 |  | 0.798 | 0.882 | 0.503
9 | NCI-H1355 | 0.74 | 0.627 | 0.816 | 0.54 | 0.493 | 0.419 | 0.42 | 0.264 | 1.02 | 0.96 | 1.11 | 1.03 | 1.08 | 0.971 | 0.937 |  | 0.752 | 0.563 | 0.662 | 0.505
10 | NCI-H1395 | 0.454 | 0.371 | 0.423 | 0.329 | 1.25 |  | 1.04 | 0.846 | 1.21 | 0.714 | 1.05 | 0.633 | 1.08 | 0.931 | 1.04 | 0.854 | 0.872 |  | 1.06 | 0.748
11 | NCI-H1437 | 0.416 | 0.288 | 0.421 | 0.142 | 0.59 | 0.389 | 0.533 | 0.342 | 0.865 | 0.654 | 0.773 | 0.346 | 1.26 | 1.17 | 1.13 | 0.742 | 0.782 | 0.783 | 0.705 | 0.307
12 | NCI-H1650 | 0.366 | 0.33 | 0.296 | 0.172 | 0.858 | 0.499 | 0.752 | 0.241 | 0.96 | 0.776 | 0.787 | 0.224 | 1.43 | 1.24 | 1.32 | 0.365 | 0.505 | 0.567 | 0.633 | 0.424
13 | NCI-H1651 | 0.456 | 0.35 | 0.612 | 0.13 | 0.853 | 0.791 | 0.835 | 0.74 | 0.912 | 0.696 | 0.849 | 0.365 | 0.923 |  | 0.787 | 0.515 | 0.504 | 0.461 | 0.6 | 0.542
14 | NCI-H1666 | 0.913 | 0.788 | 0.829 |  | 0.954 | 0.764 | 0.762 | 0.639 | 0.594 | 0.674 | 0.739 | 0.598 | 0.976 | 0.93 |  | 0.889 | 1.01 | 0.873 | 1.05 | 0.966
